Where “and” joins values, the source holds several entries; their conditions need not be identical. Equal values may be shown once. Numbers after ± are expanded uncertainties.
Test: xn = mol fraction of the nth substance listed
Conditions: for mass density: 100 kPa, Liquid

O=C(O)CCC(=O)O [butanedioic acid] + O
Ring tensiometer
Conditions | surface tension liquid-gas
279.9 K, x1 = 0.00716 | 70 mN/m
280.1 K, x1 = 0.00716 | 69.2 mN/m
280.2 K, x1 = 0.00716 | 70.3 mN/m
280.6 K, x1 = 0.00716 | 70 mN/m
284 K, x1 = 0.00716 | 69 mN/m
284.3 K, x1 = 0.00716 | 69.7 mN/m
284.7 K, x1 = 0.00716 | 69.3 mN/m
284.8 K, x1 = 0.00716 | 69.5 mN/m
285 K, x1 = 0.00716 | 69.6 mN/m
288.4 K, x1 = 0.00716 | 68.6 mN/m
288.9 K, x1 = 0.00716 | 69 mN/m and 68.8 mN/m and 68.7 mN/m
292.6 K, x1 = 0.00716 | 67.8 mN/m
293.1 K, x1 = 0.00716 | 68.5 mN/m
293.3 K, x1 = 0.00716 | 68.2 mN/m
293.4 K, x1 = 0.00716 | 68.2 mN/m
293.6 K, x1 = 0.00716 | 68.4 mN/m
296.8 K, x1 = 0.00716 | 67.2 mN/m
297.4 K, x1 = 0.00716 | 67.7 mN/m
297.6 K, x1 = 0.00716 | 68 mN/m
297.8 K, x1 = 0.00716 | 67.8 mN/m
297.9 K, x1 = 0.00716 | 67.8 mN/m
298 K, x1 = 0.0011 | 70.9 ± 1.2 mN/m
298 K, x1 = 0.0022 | 70 ± 1.2 mN/m
298 K, x1 = 0.0028 | 69.8 ± 1.1 mN/m
298 K, x1 = 0.0033 | 69.4 ± 1.1 mN/m
298 K, x1 = 0.0045 | 68.9 ± 1.1 mN/m
298 K, x1 = 0.0056 | 68.5 ± 1.1 mN/m
298 K, x1 = 0.0067 | 68.1 ± 1.1 mN/m
298 K, x1 = 0.0071 | 67.7 ± 1.1 mN/m
298 K, x1 = 0.0078 | 67.6 ± 1.1 mN/m
298 K, x1 = 0.0089 | 67.3 ± 1.1 mN/m
298 K, x1 = 0.01 | 66.6 ± 1.1 mN/m
298 K, x1 = 0.0107 | 66.9 ± 1.1 mN/m
298 K, x1 = 0.0111 | 66.4 ± 1.1 mN/m
298 K, x1 = 0.0117 | 66.7 ± 1.1 mN/m
301.7 K, x1 = 0.00716 | 67.5 mN/m
301.8 K, x1 = 0.00716 | 67.1 mN/m
302.3 K, x1 = 0.00716 | 67.3 mN/m
302.9 K, x1 = 0.00716 | 67.1 mN/m

298 K
Conditions | mass density
x1 = 0.0011 | 991 ± 2 kg/m3
x1 = 0.0012 | 997 ± 2 kg/m3
x1 = 0.0022 | 993 ± 2 kg/m3 and 1003 ± 2 kg/m3
x1 = 0.0028 | 996 ± 2 kg/m3
x1 = 0.0033 | 997 ± 2 kg/m3
x1 = 0.0037 | 1001 ± 2 kg/m3
x1 = 0.0045 | 998 ± 2 kg/m3
x1 = 0.0047 | 1002 ± 2 kg/m3
x1 = 0.0056 | 1001 ± 2 kg/m3
x1 = 0.0067 | 1002 ± 2 kg/m3
x1 = 0.0068 | 1008 ± 2 kg/m3
x1 = 0.0078 | 1005 ± 2 kg/m3
x1 = 0.0089 | 1007 ± 2 kg/m3
x1 = 0.01 | 1009 ± 2 kg/m3
x1 = 0.011 | 1010 ± 2 kg/m3

O=C(O)/C=C\C(=O)O [cis-1,4-butenedioic acid] + O
Conditions | mass density, Pycnometric method [kg/m3] | surface tension liquid-gas, Ring tensiometer
278.3 K, x1 = 0.012 | – | 69.9 ± 1.2 mN/m
278.7 K, x1 = 0.06 | – | 64.3 ± 1.1 mN/m
279.2 K, x1 = 0.012 | – | 69.8 ± 1.2 mN/m
280.4 K, x1 = 0.06 | – | 64.4 ± 1.1 mN/m
280.5 K, x1 = 0.06 | – | 64.4 ± 1.1 mN/m
283.5 K, x1 = 0.012 | – | 69.2 ± 1.1 mN/m
283.5 K, x1 = 0.06 | – | 63.7 ± 1.1 mN/m
283.7 K, x1 = 0.012 | – | 69.4 ± 1.1 mN/m
284.2 K, x1 = 0.06 | – | 64 ± 1.1 mN/m
284.7 K, x1 = 0.06 | – | 63.9 ± 1.1 mN/m
284.9 K, x1 = 0.06 | – | 63.5 ± 1.1 mN/m
287.4 K, x1 = 0.012 | – | 68.7 ± 1.1 mN/m
287.9 K, x1 = 0.012 | – | 68.6 ± 1.1 mN/m
288.4 K, x1 = 0.06 | – | 63.4 ± 1.1 mN/m
288.6 K, x1 = 0.06 | – | 63.6 ± 1.1 mN/m
288.8 K, x1 = 0.06 | – | 63.1 ± 1 mN/m
289.1 K, x1 = 0.06 | – | 63.2 ± 1.1 mN/m
292.8 K, x1 = 0.012 | – | 68 ± 1.1 mN/m and 68.2 ± 1.1 mN/m
292.8 K, x1 = 0.06 | – | 62.8 ± 1 mN/m
292.9 K, x1 = 0.06 | – | 62.6 ± 1 mN/m
293.4 K, x1 = 0.06 | – | 62.9 ± 1 mN/m
296.2 K, x1 = 0.06 | – | 62.1 ± 1 mN/m
297 K, x1 = 0.012 | – | 67.5 ± 1.1 mN/m
297.1 K, x1 = 0.06 | – | 62.4 ± 1 mN/m
297.2 K, x1 = 0.012 | – | 67.7 ± 1.1 mN/m
297.5 K, x1 = 0.012 | – | 67.6 ± 1.1 mN/m
297.7 K, x1 = 0.06 | – | 62.3 ± 1 mN/m
298 K, x1 = 0.008 | 1016 ± 1 | 68 ± 1.1 mN/m
298 K, x1 = 0.0116 | – | 67.6 ± 1.1 mN/m
298 K, x1 = 0.017 | 1031 ± 1 | 65.9 ± 1.1 mN/m
298 K, x1 = 0.0267 | – | 64.1 ± 1.1 mN/m
298 K, x1 = 0.027 | 1048 ± 1 | –
298 K, x1 = 0.037 | 1063 ± 1 | –
298 K, x1 = 0.0374 | – | 61.4 ± 1 mN/m
298 K, x1 = 0.0376 | – | 61.4 ± 1 mN/m
298 K, x1 = 0.0489 | – | 62.2 ± 1 mN/m
298 K, x1 = 0.049 | 1084 ± 1 | –
298 K, x1 = 0.0579 | – | 61.2 ± 1 mN/m
298 K, x1 = 0.06 | – | 62.3 ± 1 mN/m
298 K, x1 = 0.062 | 1103 ± 1 | –
298 K, x1 = 0.0627 | – | 60.4 ± 1 mN/m
298 K, x1 = 0.0764 | – | 58.8 ± 1 mN/m
298 K, x1 = 0.077 | 1121 ± 1 | –
298 K, x1 = 0.085 | – | 60.3 ± 1 mN/m
298 K, x1 = 0.0932 | – | 59.7 ± 1 mN/m
298 K, x1 = 0.094 | 1135 ± 1 | –
298 K, x1 = 0.1083 | – | 59.5 ± 1 mN/m
300.9 K, x1 = 0.06 | – | 61.4 ± 1 mN/m
301.2 K, x1 = 0.06 | – | 61.5 ± 1 mN/m
301.6 K, x1 = 0.06 | – | 61.8 ± 1 mN/m
302 K, x1 = 0.06 | – | 61.8 ± 1 mN/m
302.3 K, x1 = 0.012 | – | 66.9 ± 1.1 mN/m
302.7 K, x1 = 0.012 | – | 66.8 ± 1.1 mN/m

CC(=O)[C@H]1C[C@@H](CC(=O)O)C1(C)C [cis-pinonic acid] + O
Conditions | mass density [kg/m3] | surface tension liquid-gas [mN/m]
280.7 K, Ring tensiometer, x1 = 0.00035 | – | 61.7 ± 1
282.5 K, Ring tensiometer, x1 = 0.00035 | – | 61.6 ± 1
283.6 K, Ring tensiometer, x1 = 0.00035 | – | 61.6 ± 1
283.8 K, Ring tensiometer, x1 = 0.00035 | – | 61.4 ± 1
284.4 K, Ring tensiometer, x1 = 0.00035 | – | 61.3 ± 1
285.4 K, Ring tensiometer, x1 = 0.00035 | – | 61.5 ± 1
287.5 K, Ring tensiometer, x1 = 0.00035 | – | 61.1 ± 1
288 K, Ring tensiometer, x1 = 0.00035 | – | 60.8 ± 1
288.8 K, Ring tensiometer, x1 = 0.00035 | – | 60.8 ± 1
289.1 K, Ring tensiometer, x1 = 0.00035 | – | 60.9 ± 1
291.9 K, Ring tensiometer, x1 = 0.00035 | – | 60.4 ± 1
292.5 K, Ring tensiometer, x1 = 0.00035 | – | 60.7 ± 1
292.9 K, Ring tensiometer, x1 = 0.00035 | – | 60.5 ± 1
293.9 K, Ring tensiometer, x1 = 0.00035 | – | 60.2 ± 1
296.8 K, Ring tensiometer, x1 = 0.00035 | – | 60.1 ± 1
297.1 K, Ring tensiometer, x1 = 0.00035 | – | 60.2 ± 1
298 K, Pycnometric method, x1 = 0.00018 | 995 ± 1 | –
298 K, Pycnometric method, x1 = 0.00025 | 993 ± 1 | –
298 K, Pycnometric method, x1 = 0.00033 | 995 ± 1 | –
298 K, Pycnometric method, x1 = 0.00041 | 997 ± 1 | –
298 K, Pycnometric method, x1 = 0.0005 | 996 ± 1 | –
298 K, Pycnometric method, x1 = 0.00058 | 994 ± 1 | –
298 K, Pycnometric method, x1 = 0.00066 | 994 ± 1 | –
298 K, Pycnometric method, x1 = 0.00083 | 997 ± 1 | –
298.1 K, Ring tensiometer, x1 = 0.00035 | – | 59.7 ± 1
301.2 K, Ring tensiometer, x1 = 0.00035 | – | 59.4 ± 1
301.7 K, Ring tensiometer, x1 = 0.00035 | – | 59.9 ± 1
302.1 K, Ring tensiometer, x1 = 0.00035 | – | 59.1 ± 1

298 K
Conditions | surface tension liquid-gas [mN/m]
x1 = 2e-05 | 69.5 ± 2.3
x1 = 4e-05 | 66.8 ± 2.2
x1 = 0.00011 | 64.4 ± 2.1
x1 = 0.00018 | 61.4 ± 2
x1 = 0.00024 | 61.2 ± 2
x1 = 0.00034 | 59 ± 2
x1 = 0.00041 | 57.2 ± 1.9
x1 = 0.0005 | 56.3 ± 1.9
x1 = 0.00058 | 55.8 ± 1.9
x1 = 0.00065 | 56.2 ± 1.9
x1 = 0.00083 | 53.9 ± 1.8

Source: the NIST ThermoML archive (doi:10.1021/je050366x)
